From patent publication US9302999B2, “Substituted triazoles as herbicides” (E. I. DU PONT DE NEMOURS AND COMPANY, priority 2012, dated 2016)

What was measured:
Type in all cases: in vivo
[1] = test system: pigweed (Amaranthus retroflexus); experiment: Test C pre-/postemergence: pigweed
In short: (§1)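 Visual injury scored 0–100 (100 = complete control) against untreated controls after 13–15 greenhouse days. Surfactant-containing solvent formulations applied either to soil after sowing (loam/sand) or over 1- to 4-leaf plants, 2–18 cm tall.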

[2] = test system: johnsongrass (Sorghum halepense); experiment: Test C pre-/postemergence: johnsongrass
In short: as §1

[3] = test system: barnyardgrass (Echinochloa crus-galli); experiment: Test B flooded paddy: barnyardgrass; settings: Flood; 250 g ai/ha; applied to paddy water at 2-leaf stage; visually evaluated after 13 to 15 days
In short: (§2)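 Visual ratings (0 = no effect, 100 = complete control) versus untreated controls were taken 13–15 days after treatment of greenhouse plants. Treatment was added to paddy water held at 3 cm depth on 2-leaf-stage seedlings.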

[4] = test system: foxtail, giant (giant foxtail, Setaria faberii); experiment: Test C pre-/postemergence: foxtail, giant
In short: as §1

kochia (Kochia scoparia) = experiment: Test C pre-/postemergence: kochia
In short: as §1

[5] = test system: blackgrass (Alopecurus myosuroides); experiment: Test C pre-/postemergence: blackgrass
In short: as §1

corn (Zea mays) = experiment: Test C pre-/postemergence: corn
In short: as §1

[6] = test system: winter wheat (Triticum aestivum); experiment: Test C pre-/postemergence: winter wheat
In short: as §1

soybean (Glycine max) = experiment: Test C pre-/postemergence: soybean
In short: as §1

rice (Oryza sativa) = experiment: Test B flooded paddy: rice; settings: Flood; 250 g ai/ha; applied to paddy water at 2-leaf stage; visually evaluated after 13 to 15 days
In short: as §2

[7] = test system: velvetleaf (Abutilon theophrasti); experiment: Test C pre-/postemergence: velvetleaf
In short: as §1

[8] = Postemergence, 31 g ai/ha, scale 0 to 100 (0 no effect, 100 complete control)
[9] = Postemergence, 62 g ai/ha, scale 0 to 100 (0 no effect, 100 complete control)
[10] = Postemergence, 125 g ai/ha, scale 0 to 100, 0 no effect, 100 complete control
[11] = Postemergence, 250 g ai/ha, scale 0 to 100
[12] = Preemergence, 31 g ai/ha, scale of 0 to 100, 0 is no effect, 100 is complete control
[13] = Preemergence, 62 g ai/ha, scale of 0 to 100, 0 is no effect, 100 is complete control
[14] = Preemergence, 125 g ai/ha, scale 0 to 100, 0 no effect, 100 complete control
[15] = Preemergence, 250 g ai/ha, scale 0 to 100, 0 no effect, 100 complete control
[16] = Preemergence, 62 g ai/ha, scale 0 to 100, 0 no effect, 100 complete control

Structure (SMILES): Fc1ccc(-n2nc(Cc3ccnc(C(F)(F)F)c3)c(OC(F)F)n2)cc1 [Compound 25]
- Plant response rating, Pigweed [1, 8]: 85
- Plant response rating, Pigweed [1, 9]: 95
- Plant response rating, Pigweed [1, 10]: 95
- Plant response rating, Pigweed [1, 11]: 98
- Plant response rating, Pigweed [1, 12]: 100
- Plant response rating, Pigweed [1, 13]: 100
- Plant response rating, Pigweed [1, 14]: 100
- Plant response rating, Pigweed [1, 15]: 100
- Plant response rating, Johnsongrass [2, 8]: 5
- Plant response rating, Johnsongrass [2, 9]: 5
- Plant response rating, Johnsongrass [2, 10]: 10
- Plant response rating, Johnsongrass [2, 11]: 15
- Plant response rating, Johnsongrass [2, 12]: 5
- Plant response rating, Johnsongrass [2, 13]: 30
- Plant response rating, Johnsongrass [2, 14]: 65
- Plant response rating, Johnsongrass [2, 15]: 98
- Plant response rating, Barnyardgrass (0 to 100 scale, 0 is no effect, 100 is complete control) [3]: 30
- Plant response rating, Foxtail, Giant [4, 8]: 35
- Plant response rating, Foxtail, Giant [4, 9]: 45
- Plant response rating, Foxtail, Giant [4, 10]: 55
- Plant response rating, Foxtail, Giant [4, 11]: 60
- Plant response rating, Foxtail, Giant [4, 12]: 98
- Plant response rating, Foxtail, Giant [4, 13]: 100
- Plant response rating, Foxtail, Giant [4, 14]: 100
- Plant response rating, Foxtail, Giant [4, 15]: 100
- Plant response rating, Kochia (kochia (Kochia scoparia); [8]): 75
- Plant response rating, Kochia (kochia (Kochia scoparia); [9]): 80
- Plant response rating, Kochia (kochia (Kochia scoparia); [10]): 90
- Plant response rating, Kochia (kochia (Kochia scoparia); [11]): 90
- Plant response rating, Kochia (kochia (Kochia scoparia); [12]): 10
- Plant response rating, Kochia (kochia (Kochia scoparia); [13]): 40
- Plant response rating, Kochia (kochia (Kochia scoparia); [14]): 55
- Plant response rating, Kochia (kochia (Kochia scoparia); [15]): 85
- Plant response rating, Blackgrass [5, 8]: 10
- Plant response rating, Blackgrass [5, 9]: 35
- Plant response rating, Blackgrass [5, 10]: 40
- Plant response rating, Blackgrass [5, 11]: 60
- Plant response rating, Blackgrass [5, 12]: 60
- Plant response rating, Blackgrass [5, 16]: 85
- Plant response rating, Blackgrass [5, 14]: 95
- Plant response rating, Blackgrass [5, 15]: 100
- Plant response rating, Corn (corn (Zea mays); [8]): 20
- Plant response rating, Corn (corn (Zea mays); [9]): 20
- Plant response rating, Corn (corn (Zea mays); [10]): 20
- Plant response rating, Corn (corn (Zea mays); [11]): 25
- Plant response rating, Corn (corn (Zea mays); [12]): 0
- Plant response rating, Corn (corn (Zea mays); [16]): 0
- Plant response rating, Corn (corn (Zea mays); [14]): 5
- Plant response rating, Corn (corn (Zea mays); [15]): 10
- Plant response rating, Wheat [6, 8]: 10
- Plant response rating, Wheat [6, 9]: 20
- Plant response rating, Wheat [6, 10]: 30
- Plant response rating, Wheat [6, 11]: 30
- Plant response rating, Wheat [6, 12]: 0
- Plant response rating, Wheat [6, 13]: 5
- Plant response rating, Wheat [6, 14]: 10
- Plant response rating, Wheat [6, 15]: 35
- Plant response rating, Soybean (soybean (Glycine max); [8]): 25
- Plant response rating, Soybean (soybean (Glycine max); [9]): 30
- Plant response rating, Soybean (soybean (Glycine max); [10]): 30
- Plant response rating, Soybean (soybean (Glycine max); [11]): 30
- Plant response rating, Soybean (soybean (Glycine max); [12]): 0
- Plant response rating, Soybean (soybean (Glycine max); [13]): 0
- Plant response rating, Soybean (soybean (Glycine max); [14]): 0
- Plant response rating, Soybean (soybean (Glycine max); [15]): 10
- Plant response rating, Rice (0 to 100 scale, 0 is no effect, 100 is complete control) (rice (Oryza sativa)): 35
- Plant response rating, Velvetleaf [7, 8]: 15
- Plant response rating, Velvetleaf [7, 9]: 15
- Plant response rating, Velvetleaf [7, 10]: 45
- Plant response rating, Velvetleaf [7, 11]: 50
- Plant response rating, Velvetleaf [7, 12]: 0
- Plant response rating, Velvetleaf [7, 13]: 5
- Plant response rating, Velvetleaf [7, 14]: 15
- Plant response rating, Velvetleaf [7, 15]: 70

Structure (SMILES): FC(F)Oc1nn(-c2ccc(C(F)(F)F)cc2)nc1Cc1ccnc(C(F)(F)F)c1 [Compound 26]
- Plant response rating, Pigweed [1, 9]: 60
- Plant response rating, Pigweed [1, 10]: 80
- Plant response rating, Pigweed [1, 11]: 98
- Plant response rating, Pigweed [1, 12]: 100
- Plant response rating, Pigweed [1, 13]: 100
- Plant response rating, Pigweed [1, 14]: 100
- Plant response rating, Pigweed [1, 15]: 100
- Plant response rating, Johnsongrass [2, 8]: 15
- Plant response rating, Johnsongrass [2, 9]: 15
- Plant response rating, Johnsongrass [2, 10]: 25
- Plant response rating, Johnsongrass [2, 11]: 40
- Plant response rating, Johnsongrass [2, 12]: 15
- Plant response rating, Johnsongrass [2, 13]: 55
- Plant response rating, Johnsongrass [2, 14]: 95
- Plant response rating, Johnsongrass [2, 15]: 98
- Plant response rating, Barnyardgrass (0 to 100 scale, 0 is no effect, 100 is complete control) [3]: 60
- Plant response rating, Foxtail, Giant [4, 8]: 25
- Plant response rating, Foxtail, Giant [4, 9]: 30
- Plant response rating, Foxtail, Giant [4, 10]: 45
- Plant response rating, Foxtail, Giant [4, 11]: 60
- Plant response rating, Foxtail, Giant [4, 12]: 98
- Plant response rating, Foxtail, Giant [4, 13]: 100
- Plant response rating, Foxtail, Giant [4, 14]: 100
- Plant response rating, Foxtail, Giant [4, 15]: 100
- Plant response rating, Kochia (kochia (Kochia scoparia); [8]): 75
- Plant response rating, Kochia (kochia (Kochia scoparia); [9]): 95
- Plant response rating, Kochia (kochia (Kochia scoparia); [10]): 95
- Plant response rating, Kochia (kochia (Kochia scoparia); [11]): 98
- Plant response rating, Kochia (kochia (Kochia scoparia); [12]): 45
- Plant response rating, Kochia (kochia (Kochia scoparia); [13]): 95
- Plant response rating, Kochia (kochia (Kochia scoparia); [14]): 95
- Plant response rating, Kochia (kochia (Kochia scoparia); [15]): 98
- Plant response rating, Blackgrass [5, 8]: 30
- Plant response rating, Blackgrass [5, 9]: 35
- Plant response rating, Blackgrass [5, 10]: 70
- Plant response rating, Blackgrass [5, 11]: 90
- Plant response rating, Blackgrass [5, 12]: 55
- Plant response rating, Blackgrass [5, 16]: 90
- Plant response rating, Blackgrass [5, 14]: 90
- Plant response rating, Blackgrass [5, 15]: 90
- Plant response rating, Corn (corn (Zea mays); [8]): 20
- Plant response rating, Corn (corn (Zea mays); [9]): 20
- Plant response rating, Corn (corn (Zea mays); [10]): 20
- Plant response rating, Corn (corn (Zea mays); [11]): 25
- Plant response rating, Corn (corn (Zea mays); [12]): 0
- Plant response rating, Corn (corn (Zea mays); [16]): 5
- Plant response rating, Corn (corn (Zea mays); [14]): 5
- Plant response rating, Corn (corn (Zea mays); [15]): 5
- Plant response rating, Wheat [6, 8]: 10
- Plant response rating, Wheat [6, 9]: 20
- Plant response rating, Wheat [6, 10]: 30
- Plant response rating, Wheat [6, 11]: 35
- Plant response rating, Wheat [6, 12]: 0
- Plant response rating, Wheat [6, 13]: 5
- Plant response rating, Wheat [6, 14]: 30
- Plant response rating, Wheat [6, 15]: 30
- Plant response rating, Soybean (soybean (Glycine max); [8]): 35
- Plant response rating, Soybean (soybean (Glycine max); [9]): 40
- Plant response rating, Soybean (soybean (Glycine max); [10]): 50
- Plant response rating, Soybean (soybean (Glycine max); [11]): 55
- Plant response rating, Soybean (soybean (Glycine max); [12]): 0
- Plant response rating, Soybean (soybean (Glycine max); [13]): 5
- Plant response rating, Soybean (soybean (Glycine max); [14]): 5
- Plant response rating, Soybean (soybean (Glycine max); [15]): 15
- Plant response rating, Rice (0 to 100 scale, 0 is no effect, 100 is complete control) (rice (Oryza sativa)): 80
- Plant response rating, Velvetleaf [7, 8]: 25
- Plant response rating, Velvetleaf [7, 9]: 50
- Plant response rating, Velvetleaf [7, 10]: 55
- Plant response rating, Velvetleaf [7, 11]: 85
- Plant response rating, Velvetleaf [7, 12]: 25
- Plant response rating, Velvetleaf [7, 13]: 35
- Plant response rating, Velvetleaf [7, 14]: 75
- Plant response rating, Velvetleaf [7, 15]: 100

Structure (SMILES): FC(F)(F)c1ccc(-n2nc(Cl)c(Cc3ccnc(C(F)(F)F)c3)n2)cc1 [Compound 28]
- Plant response rating, Pigweed [1, 8]: 55
- Plant response rating, Pigweed [1, 9]: 55
- Plant response rating, Pigweed [1, 10]: 55
- Plant response rating, Pigweed [1, 11]: 98
- Plant response rating, Johnsongrass [2, 8]: 5
- Plant response rating, Johnsongrass [2, 9]: 5
- Plant response rating, Johnsongrass [2, 10]: 5
- Plant response rating, Johnsongrass [2, 11]: 10
- Plant response rating, Barnyardgrass (0 to 100 scale, 0 is no effect, 100 is complete control) [3]: 90
- Plant response rating, Foxtail, Giant [4, 8]: 35
- Plant response rating, Foxtail, Giant [4, 9]: 35
- Plant response rating, Foxtail, Giant [4, 10]: 35
- Plant response rating, Foxtail, Giant [4, 11]: 50
- Plant response rating, Kochia (kochia (Kochia scoparia); [8]): 40
- Plant response rating, Kochia (kochia (Kochia scoparia); [9]): 65
- Plant response rating, Kochia (kochia (Kochia scoparia); [10]): 75
- Plant response rating, Kochia (kochia (Kochia scoparia); [11]): 95
- Plant response rating, Blackgrass [5, 8]: 10
- Plant response rating, Blackgrass [5, 9]: 10
- Plant response rating, Blackgrass [5, 10]: 55
- Plant response rating, Blackgrass [5, 11]: 60
- Plant response rating, Corn (corn (Zea mays); [8]): 15
- Plant response rating, Corn (corn (Zea mays); [9]): 20
- Plant response rating, Corn (corn (Zea mays); [10]): 25
- Plant response rating, Corn (corn (Zea mays); [11]): 25
- Plant response rating, Wheat [6, 8]: 5
- Plant response rating, Wheat [6, 9]: 10
- Plant response rating, Wheat [6, 10]: 10
- Plant response rating, Wheat [6, 11]: 20
- Plant response rating, Soybean (soybean (Glycine max); [8]): 30
- Plant response rating, Soybean (soybean (Glycine max); [9]): 35
- Plant response rating, Soybean (soybean (Glycine max); [10]): 35
- Plant response rating, Soybean (soybean (Glycine max); [11]): 60
- Plant response rating, Rice (0 to 100 scale, 0 is no effect, 100 is complete control) (rice (Oryza sativa)): 80
- Plant response rating, Velvetleaf [7, 8]: 20
- Plant response rating, Velvetleaf [7, 9]: 25
- Plant response rating, Velvetleaf [7, 10]: 35
- Plant response rating, Velvetleaf [7, 11]: 50
